Results published in ChEMBL document CHEMBL5352410, “Discovery of novel selenium-containing azole derivatives as antifungal agents by exploiting the hydrophobic cleft of CYP51” (Eur J Med Chem, 2022).
In brackets after ≈: the same amount, converted by molar mass.

Assays:
[1] = test system: Candida albicans; test: Antifungal activity against Candida albicans sc5314 by CLSI based broth microdilution method; type: functional
[2] = test system: Candida albicans; test: Antifungal activity against Candida albicans by CLSI based broth microdilution method; type: functional
[3] = test system: Nakaseomyces glabratus; test: Antifungal activity against Candida glabrata by CLSI based broth microdilution method; type: functional
[4] = test system: Candida parapsilosis; test: Antifungal activity against Candida parapsilosis by CLSI based broth microdilution method; type: functional; details: Lodderomyces parapsilosis
[5] = test system: Pichia kudriavzevii; test: Antifungal activity against Pichia kudriavzevii by CLSI based broth microdilution method; type: functional
[6] = test system: [Candida] zeylanoides; test: Antifungal activity against Candida zeylanoides by CLSI based broth microdilution method; type: functional; details: Dujonia zeylanoides
[7] = test system: Cryptococcus neoformans; test: Antifungal activity against Cryptococcus neoformans by CLSI based broth microdilution method; type: functional
[8] = test system: Aspergillus fumigatus; test: Antifungal activity against Aspergillus fumigatus by CLSI based broth microdilution method; type: functional
[9] = test system: Candida albicans; test: Antifungal activity against FCZ-resistant Candida albicans CaR by CLSI based broth microdilution method; type: functional
[10] = test system: Candida albicans; test: Antifungal activity against FCZ-resistant Candida albicans 17# by CLSI based broth microdilution method; type: functional
[11] = test system: Candida albicans; test: Antifungal activity against FCZ-resistant Candida albicans 632 by CLSI based broth microdilution method; type: functional
[12] = test system: Candida albicans; test: Antifungal activity against FCZ-resistant Candida albicans 901 by CLSI based broth microdilution method; type: functional
[13] = test system: Candida albicans; test: Antifungal activity against FCZ-resistant Candida albicans 904 by CLSI based broth microdilution method; type: functional
[14] = test system: Candida albicans; test: Fungicidal activity against Candida albicans; type: functional
[15] = test system: Candida albicans; test: Fungicidal activity against Candida albicans sc5314; type: functional
[16] = test system: Candida albicans; test: Fungicidal activity against FCZ-resistant Candida albicans CaR; type: functional
[17] = test system: Candida albicans; test: Fungicidal activity against FCZ-resistant Candida albicans 17#; type: functional
[18] = test system: Candida albicans; test: Fungicidal activity against FCZ-resistant Candida albicans 632; type: functional
[19] = test system: Candida albicans; test: Fungicidal activity against FCZ-resistant Candida albicans 901; type: functional
[20] = test system: Candida albicans; test: Fungicidal activity against FCZ-resistant Candida albicans 904; type: functional
[21] = test system: Candida albicans; test: Antibiofilm activity against Candida albicans SC5314 assessed as sessile minimum inhibitory concentration measured after 1.5 hrs by XTT assay; type: functional
[22] = test system: Candida albicans; test: Antibiofilm activity against Candida albicans SC5314 assessed as sessile minimum inhibitory concentration measured after 3 hrs by XTT assay; type: functional
[23] = test system: Candida albicans; test: Antibiofilm activity against Candida albicans SC5314 assessed as sessile minimum inhibitory concentration measured after 6 hrs by XTT assay; type: functional
[24] = test system: Candida albicans; test: Antibiofilm activity against Candida albicans SC5314 assessed as sessile minimum inhibitory concentration measured after 24 hrs by XTT assay; type: functional
[25] = test system: Candida albicans; test: Antibiofilm activity against Candida albicans CPCC400616 assessed as sessile minimum inhibitory concentration measured after 1.5 hrs by XTT assay; type: functional
[26] = test system: Candida albicans; test: Antibiofilm activity against Candida albicans CPCC400616 assessed as sessile minimum inhibitory concentration measured after 3 hrs by XTT assay; type: functional
[27] = test system: Candida albicans; test: Antibiofilm activity against Candida albicans CPCC400616 assessed as sessile minimum inhibitory concentration measured after 6 hrs by XTT assay; type: functional
[28] = test system: Candida albicans; test: Antibiofilm activity against Candida albicans CPCC400616 assessed as sessile minimum inhibitory concentration measured after 24 hrs by XTT assay; type: functional
[29] = Cytotoxicity against human HL-60 cells by MTT assay; type: toxicity, cell-based
[30] = Cytotoxicity against human MDA-MB-231 cells by MTT assay; type: toxicity, cell-based
[31] = Cytotoxicity against human PC-3 cells by MTT assay; type: toxicity, cell-based
[32] = Metabolic stability in mouse liver microsome assessed as half life; type: ADME; details: liver microsomes
[33] = Metabolic stability in mouse liver microsome assessed as clearance; type: ADME; details: liver microsomes, read-out: CLH

## Cc1ccc(C(Cn2ccnc2)[Se]C(Cn2ccnc2)c2ccc(C)cc2)cc1 (stereo unspecified)
[1]
  MIC: 4 µg/mL (≈ 8.9 µM)
[2]
  MIC: 4 µg/mL (≈ 8.9 µM)
[3]
  MIC: 16 µg/mL (≈ 35.6 µM)
[4]
  MIC: 4 µg/mL (≈ 8.9 µM)
[5]
  MIC: 16 µg/mL (≈ 35.6 µM)
[6]
  MIC: 2 µg/mL (≈ 4.45 µM)
[7]
  MIC: 32 µg/mL (≈ 71.2 µM)
[8]
  MIC: > 64 µg/mL
[9]
  MIC: 2 µg/mL (≈ 4.45 µM)
[10]
  MIC: 0.5 µg/mL (≈ 1.11 µM)
[11]
  MIC: 4 µg/mL (≈ 8.9 µM)
[12]
  MIC: 4 µg/mL (≈ 8.9 µM)
[13]
  MIC: 4 µg/mL (≈ 8.9 µM)
[14]
  MFC: 64 µg/mL (≈ 142 µM)
[15]
  MFC: 16 µg/mL (≈ 35.6 µM)
[16]
  MFC: > 64 µg/mL
[17]
  MFC: > 64 µg/mL
[18]
  MFC: 8 µg/mL (≈ 17.8 µM)
[19]
  MFC: 8 µg/mL (≈ 17.8 µM)
[20]
  MFC: 8 µg/mL (≈ 17.8 µM)
[21]
  MIC50: 1 µg/mL (≈ 2.22 µM)
  MIC80: 4 µg/mL (≈ 8.9 µM)
[22]
  MIC50: 1 µg/mL (≈ 2.22 µM)
  MIC80: 4 µg/mL (≈ 8.9 µM)
[23]
  MIC50: 1 µg/mL (≈ 2.22 µM)
  MIC80: 4 µg/mL (≈ 8.9 µM)
[24]
  MIC50: 2 µg/mL (≈ 4.45 µM)
  MIC80: 4 µg/mL (≈ 8.9 µM)
[25]
  MIC50: 1 µg/mL (≈ 2.22 µM)
  MIC80: 4 µg/mL (≈ 8.9 µM)
[26]
  MIC50: 2 µg/mL (≈ 4.45 µM)
  MIC80: 8 µg/mL (≈ 17.8 µM)
[27]
  MIC50: 2 µg/mL (≈ 4.45 µM)
  MIC80: 8 µg/mL (≈ 17.8 µM)
[28]
  MIC50: 4 µg/mL (≈ 8.9 µM)
  MIC80: 16 µg/mL (≈ 35.6 µM)
[29]
  IC50: 8.13 µM
[30]
  IC50: 4.21 µM
[31]
  IC50: 1.11 µM

## Cc1ccc(C(Cn2ccnc2)[Se][Se]C(Cn2ccnc2)c2ccc(C)cc2)cc1 (stereo unspecified)
[9]
  MIC: 2 µg/mL (≈ 3.78 µM)
[10]
  MIC: 32 µg/mL (≈ 60.6 µM)
[11]
  MIC: 4 µg/mL (≈ 7.57 µM)
[12]
  MIC: 4 µg/mL (≈ 7.57 µM)
[13]
  MIC: 4 µg/mL (≈ 7.57 µM)
[14]
  MFC: 64 µg/mL (≈ 121 µM)
[15]
  MFC: 8 µg/mL (≈ 15.1 µM)
[16]
  MFC: > 64 µg/mL
[17]
  MFC: > 64 µg/mL
[18]
  MFC: 8 µg/mL (≈ 15.1 µM)
[19]
  MFC: 8 µg/mL (≈ 15.1 µM)
[20]
  MFC: 8 µg/mL (≈ 15.1 µM)
[21]
  MIC50: 1 µg/mL (≈ 1.89 µM)
  MIC80: 4 µg/mL (≈ 7.57 µM)
[22]
  MIC50: 2 µg/mL (≈ 3.78 µM)
  MIC80: 4 µg/mL (≈ 7.57 µM)
[23]
  MIC50: 2 µg/mL (≈ 3.78 µM)
  MIC80: 8 µg/mL (≈ 15.1 µM)
[24]
  MIC50: 2 µg/mL (≈ 3.78 µM)
  MIC80: 4 µg/mL (≈ 7.57 µM)
[25]
  MIC50: 1 µg/mL (≈ 1.89 µM)
  MIC80: 8 µg/mL (≈ 15.1 µM)
[26]
  MIC50: 2 µg/mL (≈ 3.78 µM)
  MIC80: 8 µg/mL (≈ 15.1 µM)
[27]
  MIC50: 1 µg/mL (≈ 1.89 µM)
  MIC80: 32 µg/mL (≈ 60.6 µM)
[28]
  MIC50: 4 µg/mL (≈ 7.57 µM)
  MIC80: 128 µg/mL (≈ 242 µM)
[29]
  IC50: 14.7 µM
[30]
  IC50: 5.04 µM
[31]
  IC50: 7.43 µM
[32]
  half-life: 21.2 min
[33]
  CLint scaled: 68.9 mL/min/kg

## Fc1ccc(C(Cn2ccnc2)[Se]C(Cn2ccnc2)c2ccc(F)cc2F)c(F)c1 (stereo unspecified)
[1]
  MIC: 2 µg/mL (≈ 4.05 µM)
[2]
  MIC: 4 µg/mL (≈ 8.11 µM)
[3]
  MIC: 64 µg/mL (≈ 130 µM)
[4]
  MIC: 8 µg/mL (≈ 16.2 µM)
[5]
  MIC: 32 µg/mL (≈ 64.9 µM)
[6]
  MIC: 2 µg/mL (≈ 4.05 µM)
[7]
  MIC: 16 µg/mL (≈ 32.4 µM)
[8]
  MIC: > 64 µg/mL
[9]
  MIC: 2 µg/mL (≈ 4.05 µM)
[10]
  MIC: 1 µg/mL (≈ 2.03 µM)
[11]
  MIC: 4 µg/mL (≈ 8.11 µM)
[12]
  MIC: 4 µg/mL (≈ 8.11 µM)
[13]
  MIC: 8 µg/mL (≈ 16.2 µM)
[14]
  MFC: 32 µg/mL (≈ 64.9 µM)
[15]
  MFC: 8 µg/mL (≈ 16.2 µM)
[16]
  MFC: > 64 µg/mL
[17]
  MFC: > 64 µg/mL
[18]
  MFC: 8 µg/mL (≈ 16.2 µM)
[19]
  MFC: 8 µg/mL (≈ 16.2 µM)
[20]
  MFC: 8 µg/mL (≈ 16.2 µM)
[21]
  MIC50: 1 µg/mL (≈ 2.03 µM)
  MIC80: 4 µg/mL (≈ 8.11 µM)
[22]
  MIC50: 1 µg/mL (≈ 2.03 µM)
  MIC80: 4 µg/mL (≈ 8.11 µM)
[23]
  MIC50: 4 µg/mL (≈ 8.11 µM)
  MIC80: 16 µg/mL (≈ 32.4 µM)
[24]
  MIC50: 1 µg/mL (≈ 2.03 µM)
  MIC80: 4 µg/mL (≈ 8.11 µM)
[25]
  MIC50: 0.25 µg/mL (≈ 0.507 µM)
  MIC80: 2 µg/mL (≈ 4.05 µM)
[26]
  MIC50: 1 µg/mL (≈ 2.03 µM)
  MIC80: 8 µg/mL (≈ 16.2 µM)
[27]
  MIC50: 2 µg/mL (≈ 4.05 µM)
  MIC80: 16 µg/mL (≈ 32.4 µM)
[28]
  MIC50: 4 µg/mL (≈ 8.11 µM)
  MIC80: 64 µg/mL (≈ 130 µM)
[29]
  IC50: 4.61 µM
[30]
  IC50: 8.26 µM
[31]
  IC50: 1.45 µM
[32]
  half-life: 9.8 min
[33]
  CLint scaled: 558 mL/min/kg

## Clc1ccc(C(Cn2ccnc2)[Se][Se]C(Cn2ccnc2)c2ccc(Cl)cc2)cc1 (stereo unspecified)
[9]
  MIC: 2 µg/mL (≈ 3.51 µM)
[10]
  MIC: 8 µg/mL (≈ 14.1 µM)
[11]
  MIC: 4 µg/mL (≈ 7.03 µM)
[12]
  MIC: 1 µg/mL (≈ 1.76 µM)
[13]
  MIC: 8 µg/mL (≈ 14.1 µM)
[14]
  MFC: 64 µg/mL (≈ 112 µM)
[15]
  MFC: 32 µg/mL (≈ 56.2 µM)
[16]
  MFC: > 64 µg/mL
[17]
  MFC: > 64 µg/mL
[18]
  MFC: 8 µg/mL (≈ 14.1 µM)
[19]
  MFC: 4 µg/mL (≈ 7.03 µM)
[20]
  MFC: 8 µg/mL (≈ 14.1 µM)
[21]
  MIC50: 0.5 µg/mL (≈ 0.878 µM)
  MIC80: 4 µg/mL (≈ 7.03 µM)
[22]
  MIC50: 0.5 µg/mL (≈ 0.878 µM)
  MIC80: 4 µg/mL (≈ 7.03 µM)
[23]
  MIC50: 0.5 µg/mL (≈ 0.878 µM)
  MIC80: 4 µg/mL (≈ 7.03 µM)
[24]
  MIC50: 0.5 µg/mL (≈ 0.878 µM)
  MIC80: 16 µg/mL (≈ 28.1 µM)
[25]
  MIC50: 0.5 µg/mL (≈ 0.878 µM)
  MIC80: 2 µg/mL (≈ 3.51 µM)
[26]
  MIC50: 0.5 µg/mL (≈ 0.878 µM)
  MIC80: 4 µg/mL (≈ 7.03 µM)
[27]
  MIC50: 2 µg/mL (≈ 3.51 µM)
  MIC80: 32 µg/mL (≈ 56.2 µM)
[28]
  MIC50: 32 µg/mL (≈ 56.2 µM)
  MIC80: 128 µg/mL (≈ 225 µM)
[29]
  IC50: 12.5 µM
[30]
  IC50: 5.5 µM
[31]
  IC50: 2.91 µM
[32]
  half-life: 24.4 min
[33]
  CLint scaled: 25.4 mL/min/kg
